As a reminder, the efflux ratio is a quotient of directional permeabilities that is used to spot active efflux. Broadly, the IC50 is the concentration needed to halve the response being measured. Read a high IC50 as weaker potency. For orientation: Papp means a coefficient for how fast a substance crosses the barrier.

Where a name gives a salt, the structure may show the parent alone. Read-outs that look alike come from different tables or passages of the source.

In one series the target is BCRP (Homo sapiens (Human), UniProt Q9UNQ0). Description: BCRP MDCKII permeability assay: efflux ratio. Particulars: dog.
Chain of BCRP (Q9UNQ0 whole entry, species assumed): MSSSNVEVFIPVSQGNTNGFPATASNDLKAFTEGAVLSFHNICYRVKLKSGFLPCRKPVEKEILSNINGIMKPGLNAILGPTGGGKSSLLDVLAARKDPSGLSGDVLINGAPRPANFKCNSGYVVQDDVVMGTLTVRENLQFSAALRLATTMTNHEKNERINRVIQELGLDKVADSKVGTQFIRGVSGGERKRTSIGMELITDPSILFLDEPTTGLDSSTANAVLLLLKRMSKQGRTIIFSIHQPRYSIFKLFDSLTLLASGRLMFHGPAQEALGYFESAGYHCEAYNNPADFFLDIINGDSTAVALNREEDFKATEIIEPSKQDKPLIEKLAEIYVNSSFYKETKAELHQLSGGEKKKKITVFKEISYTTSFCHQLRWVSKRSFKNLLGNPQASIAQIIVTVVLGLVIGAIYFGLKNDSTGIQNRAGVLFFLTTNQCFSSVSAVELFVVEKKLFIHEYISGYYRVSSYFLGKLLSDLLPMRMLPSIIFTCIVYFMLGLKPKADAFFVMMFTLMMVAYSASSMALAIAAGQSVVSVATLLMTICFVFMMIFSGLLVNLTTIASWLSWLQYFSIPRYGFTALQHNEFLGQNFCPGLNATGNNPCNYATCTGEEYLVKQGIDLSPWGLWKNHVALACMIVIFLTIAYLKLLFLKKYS
Series [1] has as its target full-length FLAG-tagged B-Raf(V600E) (Homo sapiens (Human), UniProt P15056, V600E). Description: BRAF V600E enzyme assay (TR-FRET competitive displacement of fluorescent tracer). Format: binding. The text has this: A competitive displacement assay was configured for B-Raf that monitors the amount of a fluorescently-tagged “tracer” bound to B-Raf via TR-FRET from an anti-tag Eu-labeled antibody also bound to B-Raf.
[formula] • where: • Xmax Average Uninhibited Controls • Xmin Average Background
A 4-parameter logistic model was the fit to the POC data for each compound.
For orientation: In TR-FRET formats the signal depends on donor and acceptor labels being close together.

A short description of series [2]: MDR1 LLC-PK1 and BCRP MDCKII permeability assay: permeability coefficient (Papp).
The target in another series is P-gp (MDR1) (Homo sapiens (Human), UniProt P08183). Description: MDR1 LLC-PK1 permeability assay: efflux ratio. The conditions noted are these: pig, LLC-PK1.
Chain of P-gp (MDR1) (P08183 whole entry, species assumed): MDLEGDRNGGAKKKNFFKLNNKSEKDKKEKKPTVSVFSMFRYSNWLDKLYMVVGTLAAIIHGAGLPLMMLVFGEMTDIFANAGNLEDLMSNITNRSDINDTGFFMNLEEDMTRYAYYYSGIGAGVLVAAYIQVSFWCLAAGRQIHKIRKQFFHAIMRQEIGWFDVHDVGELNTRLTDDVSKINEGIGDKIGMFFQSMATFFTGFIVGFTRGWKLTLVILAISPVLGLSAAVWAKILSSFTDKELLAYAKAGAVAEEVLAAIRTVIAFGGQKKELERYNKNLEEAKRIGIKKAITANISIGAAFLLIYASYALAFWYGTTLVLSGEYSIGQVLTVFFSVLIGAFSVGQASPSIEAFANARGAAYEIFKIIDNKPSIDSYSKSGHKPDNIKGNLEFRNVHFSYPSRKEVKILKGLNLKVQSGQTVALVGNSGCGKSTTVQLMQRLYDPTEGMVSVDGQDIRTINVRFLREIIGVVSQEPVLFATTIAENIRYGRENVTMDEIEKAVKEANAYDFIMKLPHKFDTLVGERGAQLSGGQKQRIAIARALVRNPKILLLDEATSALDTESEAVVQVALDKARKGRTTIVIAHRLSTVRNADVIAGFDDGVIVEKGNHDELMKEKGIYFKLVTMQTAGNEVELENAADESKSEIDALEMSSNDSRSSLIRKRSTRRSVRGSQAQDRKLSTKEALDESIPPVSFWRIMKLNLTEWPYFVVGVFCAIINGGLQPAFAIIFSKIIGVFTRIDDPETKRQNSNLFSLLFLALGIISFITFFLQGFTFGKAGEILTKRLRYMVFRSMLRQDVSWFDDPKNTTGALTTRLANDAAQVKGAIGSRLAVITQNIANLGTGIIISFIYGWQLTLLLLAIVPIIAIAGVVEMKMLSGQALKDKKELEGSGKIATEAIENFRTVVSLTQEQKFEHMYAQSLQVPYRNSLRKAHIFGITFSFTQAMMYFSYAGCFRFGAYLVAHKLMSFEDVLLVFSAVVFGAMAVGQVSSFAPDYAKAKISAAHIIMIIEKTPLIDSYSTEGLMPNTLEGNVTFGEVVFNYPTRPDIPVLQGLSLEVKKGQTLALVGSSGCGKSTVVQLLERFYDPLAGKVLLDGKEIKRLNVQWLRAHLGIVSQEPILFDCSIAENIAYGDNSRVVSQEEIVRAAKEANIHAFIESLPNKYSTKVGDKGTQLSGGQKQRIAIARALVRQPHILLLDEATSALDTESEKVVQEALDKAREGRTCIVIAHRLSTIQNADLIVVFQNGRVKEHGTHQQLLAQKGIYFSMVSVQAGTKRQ
The mark [3] stands for this setting: averaged IC50, 60 min at ambient temperature, 11-point dosing, top dose 10 μM.

Chain of full-length FLAG-tagged B-Raf(V600E) (P15056 whole entry V600E): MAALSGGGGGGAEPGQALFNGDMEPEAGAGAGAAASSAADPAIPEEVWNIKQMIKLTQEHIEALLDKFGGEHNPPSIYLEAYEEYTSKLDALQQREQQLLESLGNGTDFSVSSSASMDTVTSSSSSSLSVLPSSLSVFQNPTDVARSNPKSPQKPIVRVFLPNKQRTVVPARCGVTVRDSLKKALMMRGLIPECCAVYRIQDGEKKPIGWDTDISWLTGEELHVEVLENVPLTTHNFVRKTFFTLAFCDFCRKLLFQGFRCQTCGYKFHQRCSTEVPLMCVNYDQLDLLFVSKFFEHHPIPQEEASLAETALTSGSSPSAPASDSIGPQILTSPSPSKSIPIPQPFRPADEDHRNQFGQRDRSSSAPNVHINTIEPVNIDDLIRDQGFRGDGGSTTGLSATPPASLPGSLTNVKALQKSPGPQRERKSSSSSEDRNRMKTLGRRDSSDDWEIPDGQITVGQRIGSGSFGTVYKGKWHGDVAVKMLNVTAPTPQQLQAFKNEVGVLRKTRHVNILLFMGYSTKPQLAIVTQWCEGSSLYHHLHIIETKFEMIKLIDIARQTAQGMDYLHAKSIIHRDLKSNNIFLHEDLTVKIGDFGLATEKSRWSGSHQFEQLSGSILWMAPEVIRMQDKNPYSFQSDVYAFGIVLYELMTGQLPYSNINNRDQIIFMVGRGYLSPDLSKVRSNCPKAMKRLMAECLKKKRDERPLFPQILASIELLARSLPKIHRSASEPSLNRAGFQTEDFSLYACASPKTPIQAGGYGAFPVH
Method for P-gp (MDR1): Both LLC-PK1 and MDR1 transfected LLC-PK1 cells were cultured and plated according to manufacturer's recommendations with the exception that the passage media contained only 2% fetal bovine serum to extend passage time out to seven days.
Both positive and negative controls were used to assess functionality of P-gp or BCRP efflux in the assays. […] Final organic concentration in the assay was 1%. All dosing solutions contained 10 μM lucifer yellow to monitor LLC-PK1 or MDCKII cell monolayer integrity.
For the apical to basolateral determination (A to B), 75 μL of the test article in transport buffer were added to the apical side of the individual transwells and 250 μL of basolateral media, without compound or lucifer yellow, were added to each well. For the basolateral to apical determination (B to A), 250 μL of test article in transport buffer were added to each well and 75 μL transport buffer, without compound or lucifer yellow, were added to each transwell. All tests were performed in triplicate, and each compound was tested for both apical to basolateral and basolateral to apical transport. The plates were incubated for 2 hours on a Lab-Line Instruments Titer Orbital Shaker (VWR, West Chester, Pa.) at 50 rpm and 37° C. with 5% CO2. All culture plates were removed from the incubator and 50 μL of media were removed from the apical and basolateral portion of each well and added to 150 μL of 1 μM labetalol in 2:1 acetonitrile (acetonitrile): H2O, v/v.
These values were accepted when found to be below 2% for apical to basolateral and 5% basolateral to apical flux across the MDR1-transfected LLC-PK1 or BCRP-transfected MDCKII cell monolayers. The plates were sealed and the contents of each well analyzed by LC-MS/MS. The compound concentrations were determined from the ratio of the peak areas of the compound to the internal standard (labetalol) in comparison to the dosing solution.
The LC-MS/MS system was comprised of an HTS-PAL autosampler (Leap Technologies, Carrboro, N.C.), an HP1200 HPLC (Agilent, Palo Alto, Calif.), and a MDS Sciex 4000 Q Trap system (Applied Biosystems, Foster City, Calif.). […] The total run time, including re-equilibration, for a single injection was 1.2 minutes. Mass spectrometric detection of the analytes was accomplished using the ion spray positive mode.
An efflux ratio is calculated from the mean apical to basolateral (A−B) Papp data and basolateral to apical (B−A) Papp data: Efflux ratio=Papp(B−A)/Papp(A−B)

For `[2H]C([2H])([2H])n1cnc2ccc(Nc3c(F)ccc(NS(=O)(=O)CCC)c3Cl)c(C)c2c1=O` [Example 24, N-(2-chloro-4-fluoro-3-((5-methyl-3-(methyl-d3)-4-oxo-3,4-dihydroquinazolin-6-yl)amino)phenyl)propane-1-sulfonamide], the efflux ratio at 2 h, 1 µM came to 1.18 on BCRP and 1.59 on P-gp (MDR1). Besides, the half-inhibitory concentration (IC50) in series [1] is 9.05 nM. The apparent permeability (Papp) at 2 h, 1 µM in series [2] was determined as 25.6 ×10⁻⁶ cm/s.
On to `Cc1c(Nc2c(F)ccc(NS(=O)(=O)c3cc(F)ccc3F)c2Cl)ccc2ncn(C)c(=O)c12` [Example 25, N-(2-chloro-3-((3,5-dimethyl-4-oxo-3,4-dihydroquinazolin-6-yl)amino)-4-fluorophenyl)-2,5-difluorobenzenesulfonamide], for which the efflux ratio at 2 h, 1 µM on BCRP was 1.8; at P-gp (MDR1), 1.82. The compound further had an IC50 in series [1] (setting [3]) of 0.34 nM. This compound also gave an apparent permeability (Papp) at 2 h, 1 µM in series [2] of 22.1 ×10⁻⁶ cm/s.
For `Cc1c(Nc2c(F)ccc(NS(=O)(=O)c3ccccn3)c2Cl)ccc2ncn(C)c(=O)c12` [Example 26, N-(2-chloro-3-((3,5-dimethyl-4-oxo-3,4-dihydroquinazolin-6-yl)amino)-4-fluorophenyl)pyridine-2-sulfonamide] the same measures were 6.46, 2.04, 49.2 nM and 30.2 ×10⁻⁶ cm/s.
The matching figures for `COCCS(=O)(=O)Nc1ccc(F)c(Nc2ccc3ncn(C)c(=O)c3c2C)c1Cl` [Example 27, N-(2-chloro-3-((3,5-dimethyl-4-oxo-3,4-dihydroquinazolin-6-yl)amino)-4-fluorophenyl)-2-methoxyethane-1-sulfonamide]: 2.09, 1.4, 207 nM and 34.5 ×10⁻⁶ cm/s.
As to `CCCS(=O)(=O)Nc1ccc(F)c(Nc2ccc3ncn(C)c(=O)c3c2C)c1C#N` [Example 28, N-(2-cyano-3-((3,5-dimethyl-4-oxo-3,4-dihydroquinazolin-6-yl)amino)-4-fluorophenyl)propane-1-sulfonamide], the results for the efflux ratio at 2 h, 1 µM on BCRP and at P-gp (MDR1) were 33 and 6.46, respectively. This compound also gave a half-maximal inhibitory concentration (IC50) in series [1] (setting [3]) of 2 nM. The compound also registered a Papp at 2 h, 1 µM in series [2] of 26.8 ×10⁻⁶ cm/s.
For `CCCS(=O)(=O)Nc1ccc(F)c(Nc2ccc3ncn(Cc4ccccc4)c(=O)c3c2C)c1Cl` [Example 29, N-(3-((3-benzyl-5-methyl-4-oxo-3,4-dihydroquinazolin-6-yl)amino)-2-chloro-4-fluorophenyl)propane-1-sulfonamide] the same measures were 0.87, 1.61, 174 nM and 12 ×10⁻⁶ cm/s.
As for `CCCS(=O)(=O)Nc1ccc(F)c(Nc2ccc3ncn(CCOC)c(=O)c3c2C)c1Cl` [Example 30, N-(2-chloro-4-fluoro-3-((3-(2-methoxyethyl)-5-methyl-4-oxo-3,4-dihydroquinazolin-6-yl)amino)phenyl)propane-1-sulfonamide], the figures for the efflux ratio at 2 h, 1 µM at BCRP and at P-gp (MDR1) were 1.92 and 2.59, respectively. This compound registered an IC50 in series [1] (setting [3]) of 45.5 nM. In addition, the Papp at 2 h, 1 µM in series [2] is 24.8 ×10⁻⁶ cm/s.
For `CCCS(=O)(=O)Nc1ccc(F)c(Nc2ccc3ncn(C4CC4)c(=O)c3c2C)c1Cl` [Example 31, N-(2-chloro-3-((3-cyclopropyl-5-methyl-4-oxo-3,4-dihydroquinazolin-6-yl)amino)-4-fluorophenyl)propane-1-sulfonamide trifluoroacetate], the efflux ratio at 2 h, 1 µM on BCRP was found to be 1.64; on P-gp (MDR1), 1.59. In series [1] (setting [3]), this compound gave an IC50 of 25.1 nM. The Papp at 2 h, 1 µM in series [2] came out at 24.5 ×10⁻⁶ cm/s.
For `CCCS(=O)(=O)Nc1ccc(F)c(Nc2ccc3ncn(-c4ccccc4)c(=O)c3c2C)c1Cl` [Example 32, N-(2-chloro-4-fluoro-3-((5-methyl-4-oxo-3-phenyl-3,4-dihydroquinazolin-6-yl)amino)phenyl)propane-1-sulfonamide trifluoroacetate] the same measures were 1, 0.86, 92.7 nM and 15.6 ×10⁻⁶ cm/s.
For `CCCS(=O)(=O)Nc1ccc(F)c(Nc2ccc3ncn(C4CCC4)c(=O)c3c2C)c1Cl` [Example 33, N-(2-chloro-3-((3-cyclobutyl-5-methyl-4-oxo-3,4-dihydroquinazolin-6-yl)amino)-4-fluorophenyl)propane-1-sulfonamide trifluoroacetate] the same measures were 1.33, 1.2, 24 nM and 21.9 ×10⁻⁶ cm/s.
For `CCCS(=O)(=O)Nc1ccc(F)c(Nc2ccc3ncn([C@@H]4CCOC4)c(=O)c3c2C)c1Cl` [Example 34, (R)-N-(2-chloro-4-fluoro-3-((5-methyl-4-oxo-3-(tetrahydrofuran-3-yl)-3,4-dihydroquinazolin-6-yl)amino)phenyl)propane-1-sulfonamide trifluoroacetate] the same measures were 2.19, 1.81, 8.9 nM and 27.7 ×10⁻⁶ cm/s.
`CCCS(=O)(=O)Nc1ccc(F)c(Nc2ccc3ncn([C@H]4CCOC4)c(=O)c3c2C)c1Cl` [Example 35, (S)-N-(2-chloro-4-fluoro-3-((5-methyl-4-oxo-3-(tetrahydrofuran-3-yl)-3,4-dihydroquinazolin-6-yl)amino)phenyl)propane-1-sulfonamide trifluoroacetate]: the efflux ratio at 2 h, 1 µM at BCRP came to 1.78; at P-gp (MDR1) it was 1.92. The compound also yielded a half-maximal inhibitory concentration (IC50) in series [1] (setting [3]) of 24.5 nM. In addition, the apparent permeability coefficient (Papp) at 2 h, 1 µM in series [2] turned out to be 29.4 ×10⁻⁶ cm/s.
Regarding `CCCS(=O)(=O)Nc1ccc(F)c(Nc2ccc3ncn(CC)c(=O)c3c2C)c1Cl` [Example 37, N-(2-chloro-3-((3-ethyl-5-methyl-4-oxo-3,4-dihydroquinazolin-6-yl)amino)-4-fluorophenyl)propane-1-sulfonamide trifluoroacetate], the efflux ratio at 2 h, 1 µM was determined as 0.87 at BCRP and 0.94 on P-gp (MDR1). This compound yielded an IC50 in series [1] (setting [3]) of 5.5 nM. This compound displayed an apparent permeability coefficient (Papp) at 2 h, 1 µM in series [2] of 29.9 ×10⁻⁶ cm/s.
As for `CCCS(=O)(=O)Nc1ccc(F)c(Nc2ccc3ncn(CC4CC4)c(=O)c3c2C)c1Cl` [Example 38, N-(2-chloro-3-((3-(cyclopropylmethyl)-5-methyl-4-oxo-3,4-dihydroquinazolin-6-yl)amino)-4-fluorophenyl)propane-1-sulfonamide], the efflux ratio at 2 h, 1 µM at BCRP came to 1.57; on P-gp (MDR1) it was 1.15. The IC50 in series [1] (setting [3]) was 28.3 nM. This compound also showed a Papp at 2 h, 1 µM in series [2] of 20.6 ×10⁻⁶ cm/s.
For `CCCS(=O)(=O)Nc1ccc(F)c(Nc2ccc3ncn(C4CCCC4)c(=O)c3c2C)c1Cl` [Example 39, N-(2-chloro-3-((3-cyclopentyl-5-methyl-4-oxo-3,4-dihydroquinazolin-6-yl)amino)-4-fluorophenyl)propane-1-sulfonamide trifluoroacetate] the same measures were 1.33, 1.29, 52.6 nM and 14.2 ×10⁻⁶ cm/s.

For the origin of these results see patent US11414404B2, “Compounds for the treatment of BRAF-associated diseases and disorders” (Array BioPharma Inc., priority 2019, dated 2022).
